Source: patent US20200069644A1, “NOVEL USE OF A FORMYL PEPTIDE RECEPTOR 2/ LIPOXIN A4 RECEPTOR (FPR2/ALX) AGONIST FOR TREATMENT OF HEART FAILURE” (BRISTOL- MYERS SQUIBB COMPANY, priority 2017, published 2020)

Assays:
[1] = target: T1, Human FPR1 (Homo sapiens, UniProt P21462); test: FPR1 cAMP assay (cAMP inhibition); assay type: cell-based; settings: Human FPR1/CHO-A12
T1 construct: expressed in transfected cells; host or cells: CHO-A12
T1 sequence (P21462 1-350): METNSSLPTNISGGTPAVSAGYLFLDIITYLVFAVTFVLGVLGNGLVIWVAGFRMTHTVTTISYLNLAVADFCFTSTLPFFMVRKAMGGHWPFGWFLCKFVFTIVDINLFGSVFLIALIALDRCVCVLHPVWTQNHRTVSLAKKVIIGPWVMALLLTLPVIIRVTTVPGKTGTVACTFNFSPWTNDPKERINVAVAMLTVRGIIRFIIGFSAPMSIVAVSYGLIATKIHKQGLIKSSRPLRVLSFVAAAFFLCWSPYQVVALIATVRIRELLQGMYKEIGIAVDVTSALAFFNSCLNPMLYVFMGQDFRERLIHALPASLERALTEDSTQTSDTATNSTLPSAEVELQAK
Method: A mixture of forskolin (5 μM final for FPR2 or 10 μM final for FPR1) and IBMX (200 μM final) were added to 384-well Proxiplates (Perkin-Elmer) pre-dotted with test compounds in DMSO (1% final) at final concentrations in the range of 0.1 nM to 10 μM. CHO overexpressing human FPR1 or human FPR2 receptors were cultured in F-12 (Ham's) medium supplemented with 10% qualified FBS, 250 μg/ml zeocin and 300 μg/ml hygromycin (Life Technologies). Reactions were initiated by adding 2,000 human FPR2 cells per well or 4,000 human FPR1 cells per well in Dulbecco's PBS (with calcium and magnesium) (Life Technologies) supplemented with 0.1% BSA (Perkin-Elmer). The reaction mixtures were incubated for 30 min at room temperature. The level of intracellular cAMP was determined using the HTRF HiRange cAMP assay reagent kit (Cisbio) according to manufacturer's instruction. Solutions of cryptate conjugated anti-cAMP and d2 flurorophore-labelled cAMP were made in a supplied lysis buffer separately. […] After a 1 h room temperature incubation, time-resolved fluorescence intensity was measured using the Envision (Perkin-Elmer) at 400 nm excitation and dual emission at 590 nm and 665 nm. […] The potency and activity of Compound 1 to inhibit cAMP production was then determined by fitting to a 4-parametric logistic equation from a plot of cAMP level versus compound concentrations. […]

[2] = tested on: HL-60 cell line; test: HL-60 cell migration assay, antagonist mode (SAA-stimulated chemotaxis); assay type: cell-based; settings: Homo sapiens; HL-60 cells; read-out: IC50, antagonism of chemotaxis stimulated by SAA
Method: The HL-60 cell line (ATCC, CCL-240, lot 60398411) was maintained in IMDM (Life Tech, cat 12440-053) medium supplemented with 20% fetal bovine serum, 50 U/ml penicillin, and 50 μg/ml streptomycin at 37° with 5% CO2. Cells were differentiated into the granulocyte lineage with DMSO; 2.5×10^5 cells/ml were incubated with 1.25% DMSO for 5 days.
After 5 day differentiation, the cells were resuspended in phenol free RPMI (Invitrogen, cat 11835) with 0.2% fatty acid free BSA at a concentration of […]. The dHL-60 cells (10^5 in 100 μl) were pre-incubated for 15 minutes with varying concentrations of the […] at 37° with 5% CO2. Then 0.8 μM of the recombinant serum amyloid A1 peptide (rSAA1, PeproTech, Cat #300-53) was added to the bottom chamber of each HTS transwell-96 well plate (Corning #3387). Migration was induced by placing […] and the dHL60 cells mixture in the top chamber of the transwell plate. Cells were allowed to migrate for 120 min across the 5 micron filters at 37° C. with 5% CO2. Following migration, neutrophils or dHL-60 cells remaining in the transwell lower chamber (migrated fraction) were quantitated using the cell-titer-glo luminescence cell viability assay (Promega, G7571). […]

For `COc1cc(F)c([C@@H]2CNC(=O)[C@H]2NC(=O)Nc2ccccc2)c(F)c1` [Compound 1, 1-((3S,4R)-4-(2,6-difluoro-4-methoxyphenyl)-2-oxopyrrolidin-3-yl)-3-phenylurea], which EC50 [1] is on record?
The EC50 was 1250 nM.

And the IC50 [2]?
The IC50 was 57 nM.
